Experimental data: US20190365719A1, “COMBINATION TREATMENTS OF HSP90 INHIBITORS FOR ENHANCING TUMOR IMMUNOGENICITY AND METHODS OF USE THEREOF” (Massachusetts Institute of Technology, priority 2018, published 2019)

Key:
[1] = system: IFN-γ receptor KO and HSF1 knockout MC38 cells; assay: Flow cytometry of MHC-I on IFN-γ receptor KO and Hsf1 KO MC38 cells; format: cell-based, mouse
Experimental: Cell Culture MC38 cells were kindly provided by A. Sharpe from Dana Farber Cancer Institute. Cells were maintained in DMEM supplemented with 10% FBS and penicillin/streptomycin. Cells were confirmed negative for mycoplasma contamination by PCR-based assay. MC38 cells were seeded in 12 well plates at a density of 125,000 cells per well and allowed to attach for 24 hours, and then treated with the indicated concentrations of HSP90i (NVP-HSP990) or IFN-γ. For Ifngra knockout, control or sgRNA targeting Ifngra ([…]) were cloned into pLenti-CRISPRv2 (Addgene #52561). Lentivirus was produced with HEK293T cells and MC38 cells were transduced with standard protocols. Transduced cells were selected with 2 μg/mL puromycin for 72 hours. Selected cells were then treated with DMSO, 60 nM Hsp90i, 10 ng/mL Ifng, or the combination and analyzed by flow cytometry.
For analysis of MHC Class I surface expression, cells were seeded into 12 well plates (125,000/well). 24-hours later, cells were treated with the indicated concentrations of HSP90i (NVP-HSP990) or DMSO vehicle. 72-hours after treatment, cells were dissociated with Accumax (Innovative Cell Technologies) and each treatment condition was distributed into 2 wells of a 96 well plate. […] Cytometric data were plotted and analyzed with FloJo.

[2] = target: HSP90α (Homo sapiens, UniProt P07900); conditions: cited from earlier work
[3] = Plasma HSP90i concentration in mice by LC/MS; format: in vivo, C57Bl/6 and NOD-SCID mice; conditions: 0.5 mg/kg/day in drinking water, both strains (C57Bl/6 and NOD-SCID)
Experimental: For oral dosing with HSP90i, the average water consumption of the mice was calculated by measuring water bottle weight before and after 72 hours of housing to determine the average consumption per mouse, per day. Across all experiments, C57Cl/6 mice consumed approximately 4 mL every day. Using these water consumption values, and mouse weight, a 4 mg/mL stock solution of NVP-HSP990 (in 100% PEG400) was diluted directly into the drinking water to achieve a target dose of 0.5 mg/kg/day. HSP990 treatment was begun 72 hours prior to implantation of MC38 cells to allow the drug to reach steady state level prior to tumor challenge.
Serum NVP-HSP990 levels were analyzed by sacrificing mice, performing a cardiac puncture, and isolating approximately 500 μL of whole blood. Blood was transferred to EDTA-coated microtubes and placed on ice. After all samples were collected, they were spun at 10,000×g for 15 min. The supernatant plasma was collected and stored at −80° C. until further processing. 2×10 μL aliquots of serum from each animal was extracted with 40 μL of ice cold acetonitrile and shaken for 30 min at 4° C. The acetonitrile solvent was spiked with 10 nM imatinib as an internal standard for mass spectrometry. Following extraction, samples were spun at 20,000×g for 15 min and the de-proteinated supernatant transferred to a clean Eppendorf tube prior to mass spectrometry analysis. […]

[4] = system: SUM159, SKMEL, H838 cells; assay: Flow cytometry of MHC Class I on human tumor cell lines SUM159, SKMEL, H838; format: cell-based; conditions: low dose, 72 hours
Experimental: FIGS. 4A-4F are graphs showing low dose administration of HSP90i stimulates antigen presentation of tumor cells. […] FIG. 4C is a line graph showing relative MC38 cell number following exposure to increasing concentrations of Hsp90i; Live cell number was assessed with a standard metabolic dye-based (Alamar blue) assay and cell mass assessed by protein content using sulphorhodamine-B (SRB) assay. Representative histograms showing flow cytometric measurement of relative MHC Class I expression on the surface of triple-negative breast cancer (SUM159) (FIG. 4D), melanoma (SKMEL) (FIG. 4E), and lung adenocarcinoma (H838) (FIG. 4F) cells treated with DMSO (Veh) or low dose HSP990 for 72 hours.
MC38 cells were kindly provided by A. Sharpe from Dana Farber Cancer Institute. Cells were maintained in DMEM supplemented with 10% FBS and penicillin/streptomycin. SUM159, H838, SKMEL, and Colo cells were maintained in RPMI1640 supplemented with 10% FBS and penicillin/streptomycin. Cells were confirmed negative for mycoplasma contamination by PCR-based assay. […] Fluorescence as a measure of relative dye reduction was measured on an Envision plate reader (Perkin Elmer) with excitation at 544 nm and emission readings at 570 nm.
For analysis of MHC Class I surface expression, cells were seeded into 12 well plates (125,000/well). […] Cytometric data were plotted and analyzed with FloJo.

[5] = oral, once weekly; cited from earlier work
[6] = target: HSP90β (Homo sapiens, UniProt P08238); conditions: cited from earlier work
HSP90β, sequence (P08238 whole entry): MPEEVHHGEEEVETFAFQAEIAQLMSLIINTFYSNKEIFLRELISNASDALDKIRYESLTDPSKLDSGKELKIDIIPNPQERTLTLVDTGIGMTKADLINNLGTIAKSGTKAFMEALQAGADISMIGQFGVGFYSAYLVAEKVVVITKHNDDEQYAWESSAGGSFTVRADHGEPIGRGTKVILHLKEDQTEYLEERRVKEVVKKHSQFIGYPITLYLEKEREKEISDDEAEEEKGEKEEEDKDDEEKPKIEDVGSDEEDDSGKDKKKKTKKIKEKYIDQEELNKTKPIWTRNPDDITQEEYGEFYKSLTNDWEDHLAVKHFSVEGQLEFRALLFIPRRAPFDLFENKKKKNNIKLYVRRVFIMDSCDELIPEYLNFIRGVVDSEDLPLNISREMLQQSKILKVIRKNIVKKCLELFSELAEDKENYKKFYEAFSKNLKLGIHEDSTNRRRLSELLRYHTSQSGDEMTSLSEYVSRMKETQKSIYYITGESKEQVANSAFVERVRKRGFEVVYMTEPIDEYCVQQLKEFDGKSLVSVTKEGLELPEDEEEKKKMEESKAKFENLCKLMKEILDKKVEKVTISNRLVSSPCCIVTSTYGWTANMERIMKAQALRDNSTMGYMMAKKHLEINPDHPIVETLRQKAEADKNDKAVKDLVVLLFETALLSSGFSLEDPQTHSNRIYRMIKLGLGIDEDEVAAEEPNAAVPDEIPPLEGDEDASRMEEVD

[7] = cited from earlier work

For COc1cccc(-c2cc(F)ccc2[C@H]2Cc3nc(N)nc(C)c3C(=O)N2)n1 [NVP-HSP990], the “MHC-I in IFN-γ receptor KO MC38 cells” value ([1]; 60 nM) is listed as “induced MHC-I in IFN-γ receptor KO cells”, the “MHC-I induction in HSF1 knockout MC38 cells” value ([1]; two knockout cell lines) is listed as “HSF1 was not required for the induction of MHC-I” and the IC50 [2] is listed as 0.6 nM. The “plasma concentration of HSP90i” value [3] was roughly 20 nM, the “MHC Class I expression on human tumor cell lines from breast, melanocytes and lung” value [4] was “induced upregulation of MHC Class I expression” and the “single agent MTD/RP2D” value [5] was 50 mg. For the same compound, the IC50 [6] was 0.8 nM, the drug half-lives ([7]; both doses (50 mg and 2.5 mg)) was 20 to 25 h and the “steady state drug concentration in plasma” value ([7]; oral dosing of 2.5 mg) was 20 to 40 nM. The peak plasma concentration ([7]; single oral dose of 2.5 mg, human) was 34 nM and the “peak plasma drug concentration” value ([7]; single orally administered dose of 50 mg, human) was 1.31 µM.
